From patent US8552176B2 (priority 2010, dated 2013)
Like-named read-outs stand apart in the source and are kept apart here.

What was measured:
Test in all cases: cells
[1] = tested on: ten-member panel of human carcinomas; type: cell-based
SKOV3 = type: cell-based, human; conditions: read-out: GI50 SKOV3 ovary
HCT-15 = type: cell-based, human; conditions: read-out: GI50 HCT-15 colorectal
A549 = type: cell-based, human; conditions: read-out: GI50 A549 lung (+p53)
Hep3b = type: cell-based, human; conditions: read-out: GI50 Hep3b liver
HT29 = type: cell-based, human; conditions: read-out: GI50 HT29 colorectal
DU-145 = type: cell-based, human; conditions: read-out: GI50 DU-145 prostate
NCI-H460 = type: cell-based, human; conditions: read-out: GI50 NCI-H460 lung
H1299 = type: cell-based, human; conditions: read-out: GI50 H1299 lung (−p53)
SF-268 = type: cell-based, human; conditions: read-out: GI50 SF-268 CNS
MCF7 = type: cell-based, human; conditions: read-out: GI50 MCF7 breast

Molecule	GI50 (SKOV3) [µM]	GI50 (HCT-15) [µM]	GI50 (A549) [µM]	GI50 (Hep3b) [µM]	GI50 (HT29) [µM]	GI50 (DU-145) [µM]	GI50 (NCI-H460) [µM]	GI50 (H1299) [µM]	GI50 (SF-268) [µM]	GI50 (MCF7) [µM]	also measured
CON(CCCCc1ccc(N(CCCl)CCCl)cc1)C1OCC(O)C(O)C1O (mixture of isomers) [Compound 53, N-Methoxy-4-(4-N′,N′-bis(2-chloroethyl)amino)phenylbutylamino-D-riboside]	2 ± 0.1	1.8 ± 0.1	2.8 ± 0.1	2.4 ± 0.1	2.3 ± 0.1	3.8 ± 0.6	5.9 ± 0.7	3.6 ± 0.3	1.9 ± 0.1	1.1 ± 0.1	GI50 ([1]; read-out: GI50): 1.8 to 5.9 µM
O=C(O)CCCc1ccc(N(CCCl)CCCl)cc1 [Compound 1, Chlorambucil, reference compound]											GI50 ([1]; Homo sapiens, read-out: GI50 values): 5 to 11 µM; GI50 (SKOV3; Homo sapiens, SK-OV-3, 168 h): 5.5 ± 0.4 µM; GI50 (HCT-15; Homo sapiens, HCT-15, 168 h): 8.1 ± 0.1 µM; GI50 (A549; Homo sapiens, A549, 168 h): 6.1 ± 0.3 µM; GI50 (Hep3b; Homo sapiens, Hep3B, 168 h): 5.1 ± 0.2 µM; GI50 (HT29; Homo sapiens, HT-29, 168 h): 5 ± 0.3 µM; GI50 (DU-145; Homo sapiens, DU-145, 168 h): 9.4 ± 0.2 µM; GI50 (NCI-H460; Homo sapiens, NCI-H460, 168 h): 11 ± 0.9 µM; GI50 (H1299; Homo sapiens, NCI-H1299, 168 h): 4.9 ± 0.2 µM; GI50 (SF-268; Homo sapiens, SF-268, 168 h): 5.4 ± 0.1 µM; GI50 (MCF7; Homo sapiens, MCF7, 168 h): 8.2 ± 0.2 µM
CON(CCCCc1ccc(N(CCCl)CCCl)cc1)C1CC(O)C(O)C(C)O1 (centres unmarked) [Compound 50]	3.2 ± 0.1	2.5 ± 0.2	3.1 ± 0.2	3.8 ± 0.2	3.2 ± 0.2	5.5 ± 0.1	5.7 ± 0.6	4.8 ± 0.5	2.3 ± 0.8	3.1 ± 0.2	
CON(CCCCc1ccc(N(CCCl)CCCl)cc1)C1OC(C)C(OC(C)=O)C(OC(C)=O)C1OC(C)=O (centres unmarked) [Compound 52]	3.9 ± 0.1	3.7 ± 0.2	3.5 ± 0.1	4.6 ± 0.2	4.3 ± 0.2	4.5 ± 0.1	7.8 ± 0.8	5 ± 0.4	3 ± 0.1	3.2 ± 0.6	
CON(CCCCc1ccc(N(CCCl)CCCl)cc1)C1OC[C@H](O)[C@H](O)[C@@H]1O (stereo partly drawn) [Compound 54, N-Methoxy-4-(4-N′,N′-bis(2-chloroethyl)amino)phenylbutylamino-L-riboside]	2 ± 0.1	2.1 ± 0.1	2.4 ± 0.1	2.4 ± 0.1	2.2 ± 0.1	3.7 ± 0.1	5.7 ± 0.6	3.3 ± 0.2	2.1 ± 0.2	0.97 ± 0.02	
CON(CCCCc1ccc(N(CCCl)CCCl)cc1)C1OC(COCc2ccccc2)C(OCc2ccccc2)C1OCc1ccccc1 (centres unmarked) [Compound 57]	> 100	> 100	> 100	> 100	> 100	> 100	> 100	82 ± 7	> 100	> 100	
CON(CCCCc1ccc(N(CCCl)CCCl)cc1)[C@H]1O[C@H](CO)[C@H](O)[C@H](O)[C@@H]1O [Compound 58]	2 ± 0.1	2.2 ± 0.1	2.6 ± 0.1	2.4 ± 0.1	1.8 ± 0.4	3.3 ± 0.1	5 ± 0.6	3 ± 0.3	1.7 ± 0.1	1.5 ± 0.3	
CON(CCCCc1ccc(N(CCCl)CCCl)cc1)[C@@H]1O[C@@H](CO)[C@@H](O)[C@@H](O)[C@H]1O [Compound 59]	2 ± 0.1	2 ± 0.1	2.7 ± 0.2	2.6 ± 0.1	1.9 ± 0.1	3.4 ± 0.1	4.3 ± 0.4	2.4 ± 0.2	1.7 ± 0.1	1.8 ± 0.3	
CON(CCCCc1ccc(N(CCCl)CCCl)cc1)C1OCC(O)C1O (centres unmarked) [Compound 61]	2.1 ± 0.1	0.82 ± 0.05	2 ± 0.2	1.4 ± 0.1	1.2 ± 0.1	2.1 ± 0.1	1.9 ± 0.5	0.72 ± 0.03	1.3 ± 0.1	0.87 ± 0.09	
CON(CCCCc1ccc(N(CCCl)CCCl)cc1)C1OCC(O)C(O)C1O (centres unmarked) [Compound 62]	2.2 ± 0.1	0.9 ± 0.05	2.3 ± 0.1	1.5 ± 0.1	1.6 ± 0.1	2.3 ± 0.1	4.5 ± 0.4	0.83 ± 0.04	1.4 ± 0.1	0.91 ± 0.09	
CON(CCCCc1ccc(N(CCCl)CCCl)cc1)C1OCC(O)C(O)C1O (centres unmarked) [Compound 63]	2.4 ± 0.1	0.83 ± 0.04	2.2 ± 0.1	1.6 ± 0.1	1.5 ± 0.1	2.2 ± 0.1	2.9 ± 0.3	0.93 ± 0.03	1.5 ± 0.1	1.2 ± 0.2	
C[C@H]1OC(N(O)CCCCc2ccc(N(CCCl)CCCl)cc2)[C@H](O)[C@@H](O)[C@H]1O (stereo partly drawn) [Compound 66, N-Hydroxy-4-(4-N′,N′-bis(2-chloroethyl)amino)phenylbutylamino-D-fucoside]	4.7 ± 0.1	3.8 ± 0.3	6.4 ± 0.3	3.6 ± 0.3	4.6 ± 0.1	5.7 ± 0.4	4.9 ± 0.2	2.6 ± 0.1	1.4 ± 0.1	2.7 ± 0.1	
O=C1O[C@@H]2[C@@H](O)[C@H](N(O)CCCCc3ccc(N(CCCl)CCCl)cc3)O[C@@H]2[C@@H]1O [Compound 67, N-Hydroxy-4-(4-N′,N′-bis(2-chloroethyl)amino)phenylbutylamino-D-glucurono-6,3-lactonide]	10.1 ± 0.4	8.5 ± 0.5	10.4 ± 0.6	7.2 ± 0.3	9.9 ± 0.2	14.8 ± 0.8	13.1 ± 0.4	3.8 ± 0.1	3.1 ± 0.1	4.1 ± 0.2	
O[C@@H]1[C@H](O)COC(N(O)CCCCc2ccc(N(CCCl)CCCl)cc2)[C@@H]1O (stereo partly drawn) [Compound 68, N-Hydroxy-4-(4-N′,N′-bis(2-chloroethyl)amino)phenylbutylamino-D-riboside]	0.89 ± 0.04	0.87 ± 0.05	0.84 ± 0.05	> 5	0.9 ± 0.05	> 5	1.04 ± 0.06	1.6 ± 0.2	1.5 ± 0.1	3.2 ± 0.2	
C[C@H]1O[C@@H](NNC(=O)CCCc2ccc(N(CCCl)CCCl)cc2)[C@H](O)[C@@H](O)[C@H]1O [Compound 72, 4-(4-N′,N′-bis(2-chloroethyl)amino)phenylbutylhydrazido-β-D-fucoside]	22 ± 1	> 100	28 ± 1	11 ± 0.3	16.7 ± 0.7	24 ± 2	51 ± 2	8.7 ± 0.3	5.8 ± 0.1	6.3 ± 0.2	
O=C(CCCc1ccc(N(CCCl)CCCl)cc1)NN[C@@H]1O[C@H]2[C@H](OC(=O)[C@H]2O)[C@H]1O [Compound 73, 4-(4-N′,N′-bis(2-chloroethyl)amino)phenylbutylhydrazido-D-glucurono-6,3-lactonide]	37 ± 2	> 100	31 ± 2	17.7 ± 0.4	30 ± 2	23 ± 2	43 ± 4	12.9 ± 0.7	8.9 ± 0.4	9.9 ± 0.5	
O=C(CCCc1ccc(N(CCCl)CCCl)cc1)NNC1OC[C@@H](O)[C@H](O)[C@H]1O (stereo partly drawn) [Compound 75, 4-(4-N′,N′-bis(2-chloroethyl)amino)phenylbutylhydrazido-D-xyloside]	12 ± 0.5	> 100	14.8 ± 0.7	5.5 ± 0.4	7.2 ± 0.1	19 ± 2	26 ± 3	3.9 ± 0.2	2.5 ± 0.1	4.5 ± 0.2	
N-Hydroxy-4-(4-N′,N′-bis(2-chloroethyl)amino)phenylbutylamino-D-threoside nitrone [Compound 70]	2.6 ± 0.1	2.5 ± 0.1	3 ± 0.2	1.7 ± 0.1	3.2 ± 0.1	3.6 ± 0.2	3.8 ± 0.1	1.07 ± 0.08	1.2 ± 0.1	2 ± 0.1	
